Tests used:
[1] = tested on: fibrinolytic activity (D-dimer level in plasma); experiment: Test on combined use with t-PA: tissue factor-infused rats, plasma D-dimer level as index for fibrinolytic activity; assay type: in vivo, male Wistar rats; conditions: for D-dimer level Mean: jugular vein, blood at 45 min, N=7, control 5.0
Experimental: 1. Preparation of Administration Solution
(1) (2S)-5-Amino-2-{[1-(trans-4-methylcyclohexyl)-1H-imidazol-4-yl]methyl}valeric acid p-toluenesulfonate anhydrate (hereinafter, referred to as “compound A”) was dissolved in saline to prepare a 1.0 mg/mL solution. The solution was further diluted to 0.0050 mg/mL using saline. The dose of compound A was indicated in terms of a free form (conversion factor: 0.6301).
(2) t-PA (alteplase (Activacin (registered trademark) for Injection 6,000,000), Kyowa Hakko Kirin Co., Ltd.) was adjusted to 600,000 I.U./mL (which was defined as 1.0 mg/mL) with injectable water included therein. The resulting solution was further diluted to 0.17, 0.083, and 0.042 mg/mL using saline.
(3) The 0.0050 mg/mL compound A solution was mixed with an equal amount of saline or the 0.042 mg/mL t-PA solution to respectively prepare administration solutions for a compound A (2.5 μg/kg) group and a combination group. The 0.17, 0.083, and 0.042 mg/mL t-PA solutions were mixed with an equal amount of saline to respectively prepare administration solutions for t-PA (0.083, 0.042, and 0.021 mg/kg) groups.
(4) 4 mL of saline was added to 10 mL (standard) of a tissue factor (Dade (registered trademark) Innovin (registered trademark), Sysmex Corp.) to prepare a tissue factor solution.
(1) Ten-week-old male Wistar rats (Japan SLC, Inc.) were fasted from a day before the experiment. On the basis of their body weights measured in the morning on the day of the experiment, 7 rats were assigned to each of 6 groups: a control (saline) group, a compound A (2.5 μg/kg) group, t-PA (0.021, 0.042, and 0.083 mg/kg) groups, and a combination group of compound A (2.5 μg/kg) and t-PA (0.021 mg/kg).
(2) These rats were anesthetized by the administration of 100 mg/kg thiopental sodium (Ravonal (registered trademark), Mitsubishi Tanabe Pharma Corp.), and the tissue factor solution was continuously administered at 7.5 mL/kg/hr for 20 minutes from the jugular veins. 25 minutes after the start of the administration of the tissue factor, the administration solution for each group was rapidly administered from the jugular veins. 45 minutes after the start of the administration of the tissue factor, blood was collected from the jugular veins into syringes supplemented with citric acid in advance, and plasma was prepared by centrifugation. The plasma was diluted 20-fold using a factor diluent (LSI Medience Corp.). D-dimer levels were measured using LPIA-Ace D-D dimer II and ACL TOP 500 CTS (Instrumentation Laboratory) and used as an index for fibrinolytic activity (FIG. 1).
(1) Microsoft Excel 2003 and SAS System Release 8.2 were used in statistical analysis.
(2) For each group, the basic statistics (mean and standard error) of the D-dimer levels were calculated and used as results relating to fibrinolytic activity (Table 1).
(3) The comparison of the compound A (2.5 μg/kg) group with the control (saline) group was carried out by the Student's t test. The calculated P value was rounded off and indicated down to four decimal places, and the significance level was set to two-sided 5%.
(4) The comparison of the t-PA (0.021, 0.042, and 0.083 mg/kg) groups with the control (saline) group was carried out by the parametric Dunnett's test. The calculated P value was rounded off and indicated down to four decimal places, and the significance level was set to two-sided 5%.
(5) The comparison of the compound A (2.5 μg/kg) group or the t-PA (0.021 mg/kg) single administration group with the combination group was carried out by the parametric Dunnett's test. The calculated P value was rounded off and indicated down to four decimal places, and the significance level was set to two-sided 5%.
(6) The comparison of the compound A (2.5 μg/kg) group or the t-PA (0.021 mg/kg) single administration group with the combination group was carried out by two-way ANOVA. […]

[2] = tested on: fibrinolytic activity (D-dimer level in plasma); experiment: Test on combined use with u-PA: tissue factor-infused rats, plasma D-dimer level as index for fibrinolytic activity; assay type: in vivo, male Wistar rats
Experimental: (1) u-PA (urokinase injection “Fuji” (registered trademark) 60,000, Wakamoto Co., Ltd.) was adjusted to 90 kU/mL with injectable water.
(2) Compound A was dissolved in saline to prepare a 1.0 mg/mL solution. The solution was further diluted to 0.0050 mg/mL using saline. The dose of compound A was indicated in terms of a free form (conversion factor: 0.6301).
(3) Appropriate amounts of saline, the 90 kU/mL u-PA solution, and the 0.0050 mg/mL compound A solution were mixed to respectively prepare administration solutions for a u-PA (30 kU/kg) group, a compound A (2.5 μg/kg) group, and a combination group of u-PA (30 kU/kg) and compound A (2.5 μg/kg).
(4) 5 mL of saline was added to 10 mL (standard) of a tissue factor (Dade (registered trademark) Innovin (registered trademark), Sysmex Corp.) to prepare a tissue factor solution.
(1) Eleven-week-old male Wistar rats (Japan SLC, Inc.) were fasted from a day before the experiment. On the basis of their body weights measured in the morning on the day of the experiment, 8 rats were assigned to each of 4 groups: a control (saline) group, a u-PA (30 kU/kg) group, a compound A (2.5 μg/kg) group, and a combination group of u-PA (30 kU/kg) and compound A (2.5 μg/kg). […]
(2) For each group, the basic statistics (mean and standard error) of the D-dimer levels were calculated and used as results relating to fibrinolytic activity (Table 2). […]

Row | Compound | D-dimer level Mean ([1]; compound A 2.5 μg/kg (free form) alone, 25 min after start of tissue factor) [µg/mL] | fibrinolytic activity (D-dimer level) with respect to the control (saline) group ([1]; compound A 2.5 μg/kg, Student's t test, P=0.1431) | D-dimer level Mean ([2]; compound A 2.5 μg/kg (free form) alone, jugular vein, blood at 45 min, N=8, control 24.2) [µg/mL] | fibrinolytic activity (D-dimer level) with respect to the control group ([2]; compound A 2.5 μg/kg single administration, Student's t test, P=0.0019) | D-dimer level Mean ([1]; t-PA 0.021 mg/kg alone) [µg/mL] | fibrinolytic activity (D-dimer level) with respect to the control (saline) group ([1]; t-PA 0.021 mg/kg, parametric Dunnett's test, P=0.3080) | D-dimer level Mean ([1]; t-PA 0.042 mg/kg alone) [µg/mL] | fibrinolytic activity (D-dimer level) with respect to the control (saline) group ([1]; t-PA 0.042 mg/kg, parametric Dunnett's test, P<0.0001) | D-dimer level Mean ([1]; t-PA 0.083 mg/kg alone) [µg/mL] | fibrinolytic activity (D-dimer level) with respect to the control (saline) group ([1]; t-PA 0.083 mg/kg, parametric Dunnett's test, P<0.0001)
1 | C[C@H]1CC[C@H](n2cnc(C[C@H](CCCN)C(=O)O)c2)CC1.Cc1ccc(S(=O)(=O)O)cc1 (relative stereo) [Compound A, (2S)-5-Amino-2-{[1-(trans-4-methylcyclohexyl)-1H-imidazol-4-yl]methyl}valeric acid p-toluenesulfonate anhydrate] | 26.4 | did not exhibit significantly excellent fibrinolytic activity | 103.8 | exhibited significantly excellent fibrinolytic activity |  |  |  |  |  | 
2 | t-PA: tissue plasminogen activator, alteplase (Activacin for Injection 6,000,000, Kyowa Hakko Kirin) |  |  |  |  | 25.0 | did not exhibit significantly excellent fibrinolytic activity | 95.2 | exhibited significantly excellent fibrinolytic activity | 254.7 | exhibited significantly excellent fibrinolytic activity

From patent US10517850B2, “Combination of TAFIa inhibitor with plasminogen activator” (DAIICHI SANKYO COMPANY, LIMITED, priority 2015, dated 2019)
